Data taken from patent US4474977A, “Amino-alcohol derivatives” (Continental Pharma S.A., priority 1977, dated 1984).
Where two headings read alike, the source gives them in different places.

What was measured:
[1] = tested on: guinea pig ileum; assay: antispasmodic activity against contractions of guinea pig ileum induced by histamine and acetylcholine; conditions: Cavia porcellus
Protocol: The antispasmodic activity of the products according to the invention was tested against contractions of guinea pig ileum, such as induced by histamine and acetylcholine. These tests allow to reveal an antihistaminic activity, an anticholinergic activity or a musculotropic antispasmodic activity. The response to the contracting agent (submaximum concentration)was repeated every 5 minutes before and after injection of increasing doses of the tested products (10^-8 to 10^-5 M). The various doses were added at intervals of 20 minutes or of the time necessary to the development of the maximum effect.
The percentage of inhibition under the influence of tested products was calculated and the theoretical concentration ensuring 50% inhibition was graphically determined for each experience. These values were expressed as -log IC50 (M). The standard value for papaverine was 4.50, namely an effective concentration of 30 μM.

[2] = tested on: femoral arterial circulation; assay: peripheral vasodilator activity on anaesthetized dog, femoral arterial perfusion pressure; format: in vivo; conditions: 30 μg/kg injected in femoral perfusion (some also at other doses); in words
Protocol: The peripheral vasodilator activity of the products according to the invention was measured on anaesthetized dog at the level of the femoral arterial circulation. To this end, the femoral artery the collaterals of which were ligaturated was perfused with a constant flow rate of blood taken from aorta. Thus the perfusion pressure measured at the level of the femoral artery, varied as a function of the resistance of perfused area. The tested products and the corresponding solvents were directly injected in the system at the dose of 30 μg/kg. The blood circulation rate being maintained constant, a vasodilation was thus measured by a decrease of the perfusion pressure. The latter is rated in comparison with the action of papaverine considered as standard and injected once per group of 4 products.
When being of interest, the products were tested at other doses under the same conditions. The vasodilation activity was rated as follows:
+: 1/3 of the papaverine activity
++: 2/3 of the papaverine activity
+++: activity equal to that of papaverine (i.e. 30 to 40 mm Hg)
++++: activity higher than that of papaverine.

[3] = tested on: spontaneously hypertensive rats; assay: antihypertensive activity, oral administration to non-anesthetized spontaneously hypertensive rats, systolic arterial pressure (plethysmographic); format: in vivo, rat; conditions: for antihypertensive activity: 60 mgr/kg oral (some also at other doses), in words; for antihypertensive effect (rating): oral
Protocol: Their antihypertensive activity was tested by oral administration to non-anesthetized, spontaneously hypertensive rats, on which the systolic arterial pressure is measured at the level of the median coccygeal artery by means of a plethysmographic method (J. Roba, G. Lambelin, A. F. De Schaepdryver, Arch. int. Pharmacodyn., 200, 182, 1972). The arterial pressure was measured every 30 minutes from two hours before to three hours after oral administration of 60 mgr/kg of the tested products or of a placebo (1% tragacanth gum mucilage). When being of interest, the products were tested at other doses under similar conditions. Only rats having a systolic pressure of 180 to 220 mm Hg were used. Two rats were used for each product. The treatments were made without the knowledge of the person making the measures. The antihypertensive effects were rated as follows:
+: reduction of 10 to 20 mm Hg
++: reduction of 20 to 30 mm Hg
+++: reduction of 30 to 50 mm Hg
++++: reduction >50 mm Hg

[4] = 50% inhibition of contractions, converted from -log IC50, read-out: effective concentration / concentration corresponding to -log IC50 (converted)
[5] = contractions induced by histamine and acetylcholine, 10^-8 to 10^-5 M, read-out: -log IC50 (M), antispasmodic activity (converted)
[6] = read-out: -log IC50 (M), antispasmodic activity (converted)
[7] = read-out: effective concentration / concentration corresponding to -log IC50 (converted)

Compound: CCCCCCCCN[C@@H](C)[C@@H](OC(=O)C1CCCCC1)c1ccc(SC(C)C)cc1 (relative stereo) [Compound 29]
- IC50 [1, 4]: < 1e-06 M
- IC50 [1, 5]: < 1e-06 M

Compound: CCCCCCCCNC(C)C(OC(=O)CC)c1ccc(SC(C)C)cc1 (stereo not shown) [Compound 2]
- IC50 [1, 4]: < 1e-06 M
- IC50 [1, 5]: < 1e-06 M

Compound: CCCCCCCCNC(C)C(OC(=O)C(C)C)c1ccc(SC(C)C)cc1 (stereo not shown) [Compound 4]
- peripheral vasodilator activity (compared with papaverine) [2]: at least equal to that of papaverine
- IC50 [1, 4]: < 1e-06 M
- IC50 [1, 5]: < 1e-06 M

Compound: CCCCCCCCNC(C)C(OC(=O)CCC)c1ccc(SC(C)C)cc1.Cl (stereo not shown) [Compound 6, 1-Butyryloxy-1-(4-isopropylthiophenyl)-2-n-octylaminopropane hydrochloride]
- peripheral vasodilator activity (compared with papaverine) [2]: at least equal to that of papaverine
- IC50 [1, 4]: < 1e-06 M
- IC50 [1, 5]: < 1e-06 M

Compound: CCCCCCCCNC(C)C(OC(=O)C1CCCCC1)c1ccc(SC(C)C)cc1 (stereo not shown) [Compound 7]
- antihypertensive activity [3]: suitable antihypertensive activity

Compound: CCCCCCCCNC(C)C(OC(=O)C1CCCC1)c1ccc(SC(C)C)cc1 (stereo not shown) [Compound 8]
- antihypertensive activity [3]: suitable antihypertensive activity

Compound: CCCCCCCCNC(C)C(OC(=O)C1CCC1)c1ccc(SC(C)C)cc1 (stereo not shown) [Compound 9]
- peripheral vasodilator activity (compared with papaverine) [2]: at least equal to that of papaverine
- IC50 [1, 4]: < 1e-06 M
- IC50 [1, 5]: < 1e-06 M

Compound: CC(C)Sc1ccc(C(OC(=O)C2CCC2)C(C)NCCCCc2ccccc2)cc1 (stereo not shown) [Compound 10]
- IC50 [1, 4]: < 1e-06 M
- IC50 [1, 5]: < 1e-06 M
- antihypertensive activity [3]: suitable antihypertensive activity

Compound: CCCCCCCCNC(C)C(OC(=O)CC)c1ccc(SC2CCCCC2)cc1 (stereo not shown) [Compound 11]
- IC50 [1, 4]: < 1e-06 M
- IC50 [1, 5]: < 1e-06 M

Compound: CCCCCCCCNC(C)C(OC(C)=O)c1ccc(SC2CCCC2)cc1 (stereo not shown) [Compound 15]
- peripheral vasodilator activity (compared with papaverine) [2]: at least equal to that of papaverine
- IC50 [1, 6]: < 1e-06 M
- IC50 [1, 7]: < 1e-06 M

Compound: CCCCCCCCNC(C)C(OC(C)=O)c1ccc(OC(C)C)cc1 (stereo not shown) [Compound 18, 1-acetyloxy-1-(4-isopropyloxyphenyl)-2-n.octylaminopropane]
- peripheral vasodilator activity (compared with papaverine) [2]: at least equal to that of papaverine
- IC50 [1, 6]: < 1e-06 M
- IC50 [1, 7]: < 1e-06 M
- antihypertensive activity [3]: suitable antihypertensive activity

Compound: CCCCCCCCNC(C)C(OC(=O)C(C)C)c1ccc(OCCCC)cc1 (stereo not shown) [Compound 19, 1-(p-n-Butyloxyphenyl)-1-sec-butyryloxy-2-n-octylaminopropane]
- antihypertensive activity [3]: suitable antihypertensive activity

Compound: CC(C)Oc1ccc(C(OC(=O)C2CCCCC2)C(C)NCCCCc2ccccc2)cc1 (stereo not shown) [Compound 20]
- peripheral vasodilator activity (compared with papaverine) [2]: at least equal to that of papaverine
- IC50 [1, 4]: < 1e-06 M
- IC50 [1, 5]: < 1e-06 M
- antihypertensive activity [3]: suitable antihypertensive activity

Compound: CC(C)Sc1ccc(C(OC(=O)C(C)C)C(C)NCCOc2ccccc2)cc1 (stereo not shown) [Compound 22]
- IC50 [1, 4]: < 1e-06 M
- IC50 [1, 5]: < 1e-06 M

Compound: CCCC(=O)OC(c1ccc(SC(C)C)cc1)C(C)NCCCCc1ccccc1 (stereo not shown) [Compound 23]
- peripheral vasodilator activity (compared with papaverine) [2]: at least equal to that of papaverine
- IC50 [1, 4]: < 1e-06 M
- IC50 [1, 5]: < 1e-06 M

Compound: CCCC(=O)OC(c1ccc(SC(C)C)cc1)C(C)NCCOc1ccccc1 (stereo not shown) [Compound 24]
- IC50 [1, 4]: < 1e-06 M
- IC50 [1, 5]: < 1e-06 M
- antihypertensive activity [3]: suitable antihypertensive activity

Compound: CC(=O)OC(c1ccc(SC(C)C)cc1)C(C)NCCOc1ccccc1 (stereo not shown) [Compound 25]
- antihypertensive activity [3]: suitable antihypertensive activity

Compound: CC(C)Sc1ccc(C(OC(=O)C(C)C)C(C)NCCCCc2ccccc2)cc1 (stereo not shown) [Compound 26]
- peripheral vasodilator activity (compared with papaverine) [2]: at least equal to that of papaverine
- IC50 [1, 4]: < 1e-06 M
- IC50 [1, 5]: < 1e-06 M

Compound: CC(=O)OC(c1ccc(SC(C)C)cc1)C(C)NCCCCc1ccccc1 (stereo not shown) [Compound 27]
- peripheral vasodilator activity (compared with papaverine) [2]: at least equal to that of papaverine
- IC50 [1, 6]: < 1e-06 M
- IC50 [1, 7]: < 1e-06 M
- antihypertensive activity [3]: suitable antihypertensive activity

Compound: CCCCCCCCNC(C)C(OC(=O)C1CC1)c1ccc(SC(C)C)cc1 (stereo not shown) [Compound 28]
- IC50 [1, 4]: < 1e-06 M
- IC50 [1, 5]: < 1e-06 M

Compound: CCCCCCCCNC(C)C(OC(=O)CCCCC(=O)OC)c1ccc(SC(C)C)cc1 (stereo not shown) [Compound 31]
- IC50 [1, 4]: < 1e-06 M
- IC50 [1, 5]: < 1e-06 M

Compound: CCCCCCCCNC(C)C(OC(=O)CCc1ccccc1)c1ccc(SC(C)C)cc1 (stereo not shown) [Compound 32]
- IC50 [1, 4]: < 1e-06 M
- IC50 [1, 5]: < 1e-06 M

Compound: CCCCCCCCNC(C)C(OC(=O)Cc1ccccc1)c1ccc(SC(C)C)cc1 (stereo not shown) [Compound 34]
- antihypertensive activity [3]: suitable antihypertensive activity

Compound: CCCCCCCCNC(C)C(OC(=O)Cc1ccc(OC)cc1)c1ccc(SC(C)C)cc1 (stereo not shown) [Compound 35]
- antihypertensive activity [3]: suitable antihypertensive activity

Compound: CCCCCCCCNC(C)C(OC(=O)CC1CCCCC1)c1ccc(SC(C)C)cc1 (stereo not shown) [Compound 37]
- antihypertensive activity [3]: suitable antihypertensive activity

Compound: CC(=O)OC(c1ccc(SC(C)C)cc1)C(C)NCCCC(=O)c1ccc(F)cc1 (stereo not shown) [Compound 43]
- antihypertensive activity [3]: suitable antihypertensive activity

Compound: CCCCCCCCNC(C)C(O)c1ccc(OCC(C)C)cc1 (stereo not shown) [Compound 78]
- peripheral vasodilator activity (compared with papaverine) [2]: at least equal to that of papaverine
- IC50 [1, 6]: < 1e-06 M
- IC50 [1, 7]: < 1e-06 M

Compound: CCCCCCNC(C)C(O)c1ccc(OCC(C)C)cc1 (stereo not shown) [Compound 79]
- peripheral vasodilator activity (compared with papaverine) [2]: at least equal to that of papaverine

Compound: CCCCCCCCNC(C)C(O)c1ccc(C(C)C)cc1 (stereo not shown) [Compound 81, 1-(4-isopropylphenyl)-2-n-octylamino-1-propanol]
- peripheral vasodilator activity (compared with papaverine) [2]: at least equal to that of papaverine
- IC50 [1, 6]: < 1e-06 M
- IC50 [1, 7]: < 1e-06 M

Compound: CCCCCCCCCCCCNC(C)C(O)c1ccc(C(C)C)cc1 (stereo not shown) [Compound 82]
- peripheral vasodilator activity (compared with papaverine) [2]: at least equal to that of papaverine

Compound: CCCCCCNC(C)C(O)c1ccccc1 (stereo not shown) [Compound 83]
- peripheral vasodilator activity (compared with papaverine) [2]: at least equal to that of papaverine
- IC50 [1, 6]: < 1e-06 M
- IC50 [1, 7]: < 1e-06 M

Compound: CCCCCCCCNC(C)C(O)c1ccc(Cl)cc1 (stereo not shown) [Compound 85]
- peripheral vasodilator activity (compared with papaverine) [2]: at least equal to that of papaverine
- IC50 [1, 6]: < 1e-06 M
- IC50 [1, 7]: < 1e-06 M

Compound: CCCCCCCCCCCCNC(C)C(O)c1ccc(OC)cc1 (stereo not shown) [Compound 88]
- IC50 [1, 6]: < 1e-06 M
- IC50 [1, 7]: < 1e-06 M

Compound: CCCCCCCCNC(C)C(O)c1ccc(OCCCC)cc1 (stereo not shown) [Compound 91, 1-(4-butoxyphenyl)-2-n-octylamino-1-propanol]
- peripheral vasodilator activity (compared with papaverine) [2]: at least equal to that of papaverine
- IC50 [1, 6]: < 1e-06 M
- IC50 [1, 7]: < 1e-06 M

Compound: CC(C)Oc1ccc(C(O)C(C)NCCCCc2ccccc2)cc1 (stereo not shown) [Compound 94, 1-(4-Isopropoxyphenyl)-2-(4-phenylbutylamino)-1-propanol]
- antihypertensive activity [3]: suitable antihypertensive activity

Compound: COc1ccc(Cc2nccc3cc(OC)c(OC)cc23)cc1OC [papaverine, reference compound]
- IC50 [1, 6]: 3.16e-05 M
- IC50 [1, 7]: 3e-05 M

Compound: COC(=O)[C@H]1[C@H]2C[C@@H]3c4[nH]c5cc(OC)ccc5c4CCN3C[C@H]2C[C@@H](OC(=O)c2cc(OC)c(OC)c(OC)c2)[C@@H]1OC [reserpine, reference compound]
- antihypertensive effect (rating) ([3]; 3 mgr/kg): +++ (reduction of 30 to 50 mm Hg)

Compound: CC(N)(Cc1ccc(O)c(O)c1)C(=O)O (stereo not drawn) [α-methyldopa, reference compound]
- antihypertensive effect (rating) ([3]; 100 mgr/kg): +++ (reduction of 30 to 50 mm Hg)
